Test results from US6294535A, “Uracil derivatives and antitumor effect potentiator and antitumor agent containing the same” (Taiho Pharmaceutical Co., Ltd., priority 1995, dated 2001).
Like-named read-outs stand apart in the source and are kept apart here.

Tests used:
[1] = test system: thymidine phosphorylase; conditions: reported to date; cited from earlier work
[2] = biological target: T1, thymidine phosphorylase obtained from human placenta (Homo sapiens, UniProt P19971); assay: Test 1: thymidine phosphorylase inhibiting effects (formation of [6-3H]thymine from [6-3H]thymidine); format: biochemical; conditions: 37° C., 5 minutes, pH 7.4, 3 mM thymidine solution
T1 construct: thymidine phosphorylase obtained from human placenta in a highly purified form; from tissue; host or cells: human placenta
T1 sequence (P19971 11-482): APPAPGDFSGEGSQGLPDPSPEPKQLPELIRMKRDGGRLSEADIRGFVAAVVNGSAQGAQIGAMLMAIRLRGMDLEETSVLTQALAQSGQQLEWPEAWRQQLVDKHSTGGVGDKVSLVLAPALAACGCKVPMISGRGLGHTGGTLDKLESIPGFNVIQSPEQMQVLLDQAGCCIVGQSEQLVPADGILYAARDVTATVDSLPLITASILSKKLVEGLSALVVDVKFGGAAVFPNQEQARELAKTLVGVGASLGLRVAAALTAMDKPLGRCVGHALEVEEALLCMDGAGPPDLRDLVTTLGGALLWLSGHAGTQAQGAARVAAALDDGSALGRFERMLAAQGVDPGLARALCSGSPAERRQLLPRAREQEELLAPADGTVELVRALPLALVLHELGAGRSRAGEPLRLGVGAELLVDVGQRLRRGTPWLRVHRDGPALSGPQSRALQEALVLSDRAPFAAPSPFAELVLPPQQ

[3] = antitumor; cited from earlier work
[4] = test system: Nude-mouse-transplanted human tumor
[5] = test system: Nude-mouse-transplanted human tumor; assay: Test 2: antitumor effects, nude-mouse-transplanted human tumor; format: in vivo; conditions: oral, once a day for 14 days
[6] = test system: herpetic keratitis; conditions: used as an eye drop for herpetic keratitis; cited from earlier work
[7] = test system: Nude-mouse-transplanted human tumor; assay: Test 4: antitumor effects, therapeutic index of F3 dThd with Compound 2; format: in vivo; conditions: oral, once a day for 14 days
Excerpt: Test 4 (Antitumor Effects)

[8] = test system: S-180 cells; conditions: oral, once a day for 7 days

SMILES: N#Cc1ccc(O)nc1O [3-Cyano-2,6-dihydroxypyridine]
- inhibitory activities against thymidine phosphorylase [1]: not sufficient

SMILES: Cc1cn(COCCO)c(=O)[nH]c1=O [Acyclothymidine]
- IC50 [2]: > 1000 µM
- inhibitory activities against thymidine phosphorylase [1]: not sufficient

SMILES: O=c1[nH]c(=O)n([C@H]2C[C@H](O)[C@@H](CO)O2)cc1C(F)(F)F [F3 dThd, 5-Trifluoromethyl-2'-deoxyuridine]
- in vitro activities [3]: strong in vitro activities
- Therapeutic index BWC-10 /ED50 ([4]; mouse, in vivo, po): 2.7
- BWC-10 ([4]; mouse, in vivo, po, 20160 min): 73.8 mg/kg
- ED50 ([4]; oral, once a day for 14 days, 12.5-100 mg/kg in terms of F3 dThd): 26.9 mg/kg
- Tumor size reduction rate ([5]; 50 mg/kg in terms of F3 dThd): 27%
- Tumor size reduction rate ([5]; 100 mg/kg in terms of F3 dThd): 50%
- antiviral activities [6]: has antiviral activities
- BWC-10 ([7]; body weight change, in terms of F3 dThd): 103 mg/kg
- Therapeutic index BWC-10 /ED50 [7]: 1.7
- ED50 ([7]; 12.5-100 mg/kg in terms of F3 dThd): 60.0 mg/kg

SMILES: O=c1[nH]c(=O)n([C@H]2C[C@H](O)[C@@H](CO)O2)cc1F [FdUrd, 5-Fluoro-2'-deoxyuridine]
- Tumor size reduction rate ([8]; 5 mg/kg in terms of FdUrd): 10.5%
- Tumor size reduction rate ([8]; 10 mg/kg in terms of FdUrd): 24.4%
- in vitro activities [3]: strong in vitro activities
